Test results published in paper PMC7326642 (Current computer-aided drug design, 2021).

How the values were obtained:
[1] = molecular target: Cyclin A2-CDK2 kinase enzyme (Homo sapiens, UniProt P20248+P24941); assay: ADP-Glo Kinase Assay, screening at 0, 1 and 10 μM; type: biochemical; settings: for kinase activity reduced to: remaining CDK2 kinase activity
[2] = molecular target: cyclin A2-CDK2 complex (Homo sapiens, UniProt P20248+P24941); assay: dose response in the in vitro biochemical kinase assay; settings: 0 nM to 100 μM, room temperature

| effect on kinase activity (in words) ([1]; 10 μM compound) | Structure (SMILES) | other results |
| --- | --- | --- |
| weakly activated CDK2 activity | Cc1ccc(Nc2nc(N)nc(N)c2N=O)cc1 [NSC49876] | – |
| weakly activated CDK2 activity | CCc1c(N)nc(N)nc1Nc1ccc(Cl)c(Cl)c1 [NSC50590] | – |
| weakly activated CDK2 activity | Cc1cc(Br)ccc1Nc1nc(N)nc(N)c1N=O [NSC66578] | – |
| weakly activated CDK2 activity | N#Cc1c(Nc2ccc(Br)cc2)[nH]c(=O)[nH]c1=O [NSC73380] | – |
| weakly activated CDK2 activity | NC(=O)c1c(Nc2ccc(Br)cc2)[nH]c(=O)[nH]c1=O [NSC73381] | – |
| – | N#Cc1c(N)nc(N)nc1Nc1ccc(Br)cc1 [compound 1] | effect on kinase activity (in words) ([1]; 1 μM compound): no significant effect; kinase activity reduced to ([1]; 10 μM compound): 58%; IC50 [2]: 6.5 µM |

| Structure (SMILES) | effect on kinase activity (in words) ([1]; 10 μM compound) | other results |
| --- | --- | --- |
| NC(=S)c1cn(C2OC(CO)C(O)C2O)c2ncnc(N)c12 (centres unmarked) [compound 2] | did not further reduce the kinase activity | kinase activity reduced to ([1]; 1 μM compound): 43%; IC50 [2]: 0.0076 µM |
